Data: PubChem BioAssay (NCI)
Values joined by “and” are separate entries in the source; they are usually repeats but may differ in a detail not shown here. Equal values may be shown once.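 Five compound concentrations were applied to cells in 96-well plates for 48 hours; endpoints were derived by simple linear interpolation of the resulting dose-response curve. GI50 is the concentration that inhibits growth by half. At the TGI there is no net growth.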 *1 amine or outer side, *2 acyl side, *3 side chain or, on linkers, in order; H or OH if unused. Where a SMILES comes first, the peptide text is derived from it. Bridges are numbered along the chain shown (N, C = ends). [ ]: non-standard residue; d: D form. The star is where a group is joined. Phe(3,5-F2) = N[C@@H](Cc1cc(F)cc(F)c1)C(=O)O; Pro(4R-Me) = C[C@H]1CN[C@H](C(=O)O)C1; aThr = C[C@H](O)[C@H](N)C(=O)O; Pip = O=C(O)[C@@H]1CCCCN1; X10 = Fc1cc(C2CC2)ccc1N*; Abu = CC[C@H](N)C(=O)O; CO = O=C([*:1])[*:2]

Test system: MDA-MB-468 breast
Experiment: NCI-60 cell line screen, 48 h

CC/C=C\C/C=C\C[C@H]1C/C=C2/C(=O)C=C[C@@H]2C/C=C\CCC(=O)O1
GI50: 0.838 µM
TGI: 2.53 µM

O=C(CNc1c(Cl)cccc1Cl)Nc1ccc(-c2nc3ccccc3s2)cc1
GI50: 0.0381 µM
TGI: 0.219 µM

O=C(NC1CCC(Br)CC1)C1CCCC(S(=O)(=O)NC2CCCCC2)C1 (stereo not drawn)
GI50: 6.44 µM
TGI: 24.9 µM

N=C1S/C(=C/c2ccc(-c3ccc4c(c3)C(=O)NC4=O)o2)C(=O)N1c1ccc(Br)cc1
GI50: 4.57 µM
TGI: > 100 µM

c1ccc(CSc2nnc3c4c5c(sc4nc(-c4cccnc4)n23)CCCCCC5)cc1
GI50: 0.568 µM
TGI: 4.12 µM

CC[C@@H]1NC(=O)[C@@H]2CCCCN2C(=O)[C@@H]2CCCN2C(=O)[C@@H](NC(=O)[C@H](Cc2cc(F)cc(F)c2)NC(=O)Nc2ccc(C3CC3)cc2F)[C@H](C)OC(=O)[C@@H]2C[C@@H](C)CN2C1=O ({X10-CO}-[Phe(3,5-F2)][aThr]P[Pip][Abu][Pro(4R-Me)]; ester 2-C)
GI50: 0.0267 µM
TGI: 0.149 µM

O=C1Nc2ccccc2C1(c1c[nH]c2ccccc12)c1c[nH]c2ccccc12
GI50: 2.08 µM
TGI: 4.56 µM

CCCCCc1c(C)[nH]c(/C=C2\N=C(c3ccc[nH]3)C=C2Oc2ccccc2)c1C
GI50: 0.0104 µM
TGI: 0.301 µM

Cc1cc(Nc2ncc(F)c(N[C@H]3[C@@H](C(N)=O)[C@@H]4C=C[C@H]3C4)n2)ccc1N1CCN(C)CC1
GI50: < 0.0161 µM
TGI: 1.26 µM

Nc1c(C(=O)Nc2ccccn2)sc2nc3c(cc12)CCCCC3
GI50: 1.05 µM
TGI: > 50 µM

COc1cccc2cc(N(C)c3ncnc4ccccc34)ccc12
GI50: < 0.01 µM
TGI: 4.74 µM

CC(=O)Nc1ccc2c(C3=C(c4cn(C)c5ccccc45)C(=O)NC3=O)cn(C)c2c1
GI50: 0.988 µM
TGI: > 7.22 µM

FC(F)(F)CNc1nccc(-c2cnn3ncccc23)n1
GI50: 8.49 µM
TGI: > 25 µM

C[C@]12CC[C@H](OC3OC(O)C(O)C(O)C3O)C=C1CCC1C2CC[C@]2(C)[C@@H](c3ccc(=O)oc3)CC[C@]12O (stereo partly drawn)
GI50: 0.00379 µM and 0.00512 µM
TGI: 0.0202 µM and 0.0145 µM

COc1cnc2c(c1)C(=O)c1c-2n(CCCBr)c(=O)c2cc([N+](=O)[O-])ccc12
GI50: 0.291 µM
TGI: 0.955 µM

Cc1ccc(C)c(COc2cc(NC(=O)c3ccc4c(c3)OCO4)ccc2N(C)S(C)(=O)=O)c1
GI50: 0.114 µM
TGI: 0.44 µM

COc1cc(-c2nn(-c3ccc(NC(=O)NCCCNC(=O)c4ccccc4)cc3)cc2-c2ccncc2)ccc1Cl
GI50: 0.284 µM
TGI: 0.827 µM

CCN(CC)c1ccc2c(cc1=O)[C@@H](NC(C)=O)CCc1cc(OC)c(OC)c(OC)c1-2
GI50: 0.13 µM

Cn1cc(C2=C(c3c4n(c5ccccc35)CCN(C(N)=S)C4)C(=O)NC2=O)c2ccccc21
GI50: 3.35 µM
TGI: > 21 µM

CCn1cc(C(=O)N/N=C/c2ccc(Br)cc2)c(=O)c2cc(F)c(N3CCNC(C)C3)c(F)c21 (stereo not drawn)
GI50: 1.59 µM
TGI: 3.09 µM

O=c1[nH]c2ccc(N=Cc3c(O)[nH]c4ccccc34)cc2[nH]1
GI50: > 25 µM
TGI: > 25 µM

O=[N+]([O-])c1ccc2scc3c4ccccc4nc-3c2c1
GI50: 0.919 µM
TGI: 2.25 µM

COc1ccc(F)cc1/C=C/C(=O)/C=C(/C=C/c1cc(F)ccc1OC)OB(F)F
GI50: 1.62 µM
TGI: 4.37 µM

FC(F)(F)c1ccc(CNc2ccc(Cc3c[nH]c4ncc(Cl)cc34)cn2)cn1
GI50: 5.1 µM and 3.77 µM
TGI: 34.4 µM and > 10 µM

O=C(Nc1ccc(Oc2cccc(Cl)c2)c(Cl)c1)c1cnccn1
GI50: 0.255 µM
TGI: > 15.8 µM

Oc1ccc(CCl)c2cccnc12
GI50: 3.39 µM
TGI: 54.3 µM

O=C(O)c1sccc1O
GI50: 32.9 µM
TGI: > 100 µM

COc1ccc(C(O)c2cc3c(N)c(C(=O)Nc4cccc(OC)c4)sc3nc2C)cc1 (stereo not drawn)
GI50: 1.23 µM
TGI: 4.61 µM

COc1cc(C(C)c2ccc3c(ccn3C)c2)cc(OC)c1OC (stereo not drawn)
GI50: < 0.01 µM
TGI: 62.1 µM

Cc1nc2ccccc2c(/C=C/c2ccc(Cl)cc2)c1C(=O)/C=C/c1ccc(F)cc1
GI50: 1.8 µM
TGI: 3.73 µM

CCC[C@H](N[C@H]1CCc2cc(F)cc(F)c2C1)C(=O)Nc1cn(C(C)(C)CNCC(C)(C)C)cn1
TGI: 74.6 µM and 21.1 µM

CC(C)=NNc1ncnc2c1ncn2C1OC(CO)C(O)C1O (stereo not drawn)
GI50: 0.499 µM
TGI: 3.9 µM

ClC1=C(Cl)C(Cl)=C(Cl)C1=Cc1ccccc1
GI50: 1.31 µM
TGI: 2.69 µM

COc1cc(OC)cc(C2C(C#N)=C(N)Oc3c2ccc2ccc(O)cc32)c1 (stereo not drawn)
GI50: < 0.01 µM
TGI: 0.98 µM

COCCNCCc1cccc(Nc2ncc3c(n2)-c2ccccc2C(c2ccccc2F)C3)c1 (stereo not drawn)
GI50: 1.9 µM and 2 µM
TGI: 3.7 µM and 3.86 µM
